Reference: patent publication US20260308158A1, “TARGETING RNAS ASSOCIATED WITH TAUOPATHIES WITH SMALL MOLECULES” (University of Florida Research Foundation, Incorporated, priority 2023, published 2026)

Tests used:
[1] = test system: MAPT exon 10 splicing in LAN5 cells; test: 4R/3R endogenous MAPT mRNA by RT-qPCR in LAN5 neuroblastoma cells; assay type: cell-based
Description: RNA Isolation and Real-Time Quantitative PCR (RT-qPCR). HeLa cells were treated as described in the Luciferase Reporter assay to Study Exon 10 Alternative Splicing. LAN5 cells were seeded in 12-well plates at 0.2×10^6 cells per well, treated with compound or ASO, and incubated for 48 h. Compound stocks prepared in DMSO and ASO stocks prepared in water were diluted in growth medium and added to cells. Total RNA was extracted from cells and analyzed via RT-qPCR to determine levels of 3R and 4R tau mRNA. In brief, the cells were washed with 1×DPBS and then lysed in the well using 300 μL of Lysis Buffer provided in a Quick-RNA MiniPrep kit (Zymo Research), which was used to extract total RNA per the manufacturer's protocol including the on-column DNase I digestion. The concentration of total RNA was measured by NanoDrop 2000 (Thermo Fisher Scientific). Only samples with OD260/OD280>1.8 were carried forward for analysis. Reverse transcription (RT) was carried out on 200 ng of total RNA using a qScript cDNA synthesis kit (QuantaBio) in a total volume of 10 μL according to the manufacturer's protocol. An Applied Biosystems QS5 384-well PCR system was used to complete qPCR reactions with Power SYBR Green Master Mix (Life Technologies), 600 nM each primer (Table S3), 20 ng of cDNA (1 μL of the RT reaction), in a total volume of 33 μL. Technical triplicates (10 μL each) were aliquoted into 384-well qPCR plates (Applied biosystems, 4483285). Subsequent qPCR analysis was performed using an Applied Biosystems QS5 384-well PCR system (software v.1.3.0). 4R/3R ratio were analyzed using ΔΔCt method using Equation 2: […]
where ΔCt 4R or ΔCt 3R is the difference between the Ct values for the 4R or 3R MAPT mRNA and a housekeeping gene (18S rRNA) in total RNA from cells.

WT MAPT SRE RNA = test: Fluorescent binding affinity, WT SRE RNA
Description: (§1) Fluorescent Binding Affinity Measurements. Binding assays were completed as previously described.^30 Briefly, the RNA of interest was folded in 1× Assay Buffer-1 (AB1: 8 mM Na2HPO4, pH 7.0, 185 mM NaCl, and 1 mM EDTA) by heating at 95° C. for 30 s followed by slowly cooling to room temperature. Bovine serum albumin (BSA) was then added to a final concentration of 40 μg/mL to afford 1× Assay Buffer-2 (AB2: 8 mM Na2HPO4, pH 7.0, 185 mM NaCl, 1 mM EDTA, and 40 μg/mL BSA). The RNA solution was serial diluted with 1×AB2. Then, compound of interest was added to the RNA solutions to a final concentration of 0.5 μM. […] Fluorescence intensity was measured using a Tecan Plate Reader (Gain: 100, Integration time: 40 μs). […] The change in fluorescence of the small molecule was calculated by its comparison to samples lacking RNA. Binding affinity was calculated using Equation 1, as previously described:^30
(§2) where I and I0 are the measured fluorescence intensity of the compound with or without RNA, respectively, Δε is the difference between the fluorescence intensity with the infinite concentration of RNA and the fluorescence intensity without RNA, [SM]0 and [RNA]0 are the concentrations of the small molecule (SM) and RNA, respectively, and Kd is the dissociation constant.

DDPAC MAPT SRE RNA = test: Fluorescent binding affinity, DDPAC SRE RNA; conditions: inherent fluorescence, n=3
Description: as §1, §2

DDPAC I17T mutant RNA = test: Fluorescent binding affinity, DDPAC I17T mutant RNA
Description: as §1, §2

[2] = test system: DDPAC MAPT mini-gene pre-mRNA; test: Chem-CLIP / C-Chem-CLIP in HeLa cells transfected with DDPAC mini-gene; assay type: cell-based; conditions: HeLa, DDPAC mini-gene
Description: Measuring Cellular Occupancy by Chem-CLIP and C-Chem-CLIP. LAN5 cells were grown to ~80% confluency in 100 mm diameter dishes. HeLa cells were transfected as described in the Luciferase Reporter Assay to Study Exon 10 Alternative Splicing except they were re-plated in 100 mm diameter dishes and grown to ~80% confluency (~1 day). The cells were then treated with 1.5 μM of 3 or 4 for 12 h. For C-Chem-CLIP, dilutions of competing compounds 1 or 2 were pre-incubated with cells for 12 h prior to adding 3. After addition of 3, the cells were incubated for an additional 12 h. After the treatment period, whether for Chem-CLIP or C-Chem-CLIP studies, the cells were washed with 10 mL of 1×DPBS. Ice-cold 1×DPBS (10 mL) was then added to the plate followed by irradiation with 365 nm light in a UV Stratalinker 2400 (Stratagene). Cells were scraped with a cell scraper, transferred to a 15 mL conical vial, and collected by centrifugation. Total RNA was extracted using TRIzol LS Reagent (Invitrogen) per the manufacturer's protocol. […]
RT-qPCR was performed on RNA samples before and after pull-down as described in Real-Time Quantitative PCR to enable calculation of fold enrichment in the pulled down samples. Relative fold enrichment of tau pre-mRNA was measured using Equation 3: […]

## COc1cc(N)ncc1CCCN(C)CCCn1cnc2c3ccccc3n(C)c2c1=O [Compound 2, 3-(3-((3-(6-amino-4-methoxypyridin-3-yl)propyl)(methyl)amino)propyl)-5-methyl-3,5-dihydro-4H-pyrimido[5,4-b]indol-4-one]
[1]; LA-N-5, 2 at 1.5 μM, LAN5, 48 h, RT-qPCR, read-out: reduction of 4R/3R ratio of MAPT RNA
  inhibition at 1.5 µM: 56 ± 4%
[1]; LAN5 cells
  PSI10 (PSI of MAPT exon 10) vs vehicle: downregulated
WT MAPT SRE RNA; 2 vs 1
  higher affinity for the MAPT SRE than 1: ~ 6 fold
WT MAPT SRE RNA; WT RNA, inherent fluorescence, n=3
  Kd: 550 ± 110 nM
DDPAC MAPT SRE RNA
  Kd: 580 ± 100 nM
DDPAC I17T mutant RNA
  Kd (estimated; no saturable binding): > 50000 nM
[2]
  competition of the interaction of 3 with reporter: competed dose dependently
